Experiments:
[1] = test system: drug-resistant liver cancer cells (R-HepG2); test: MTT cytotoxicity assay, R-HepG2; assay type: cell-based; conditions: Homo sapiens, 72 h cell treatment
Protocol: (§1) The cells (5 × 10^4 cells/well) were incubated overnight in 96-well plates. A series of solutions containing varying concentrations of inhibitors were added and incubated at 37°C for a period of 72 h. Subsequently, the culture medium was removed, followed by a subsequent incubation of the cells with a 5 mg/mL MTT stock solution for 4 h. After centrifugation, the precipitate was solubilized in DMSO and gently shaken for 15 min. Finally, the absorbance measurement at 570 nm was completed using a microplate reader. Data analysis was performed using GraphPad Prism 6.0 software.

EPHB3 = target: T1, EPHB3 (Homo sapiens, UniProt P54753); test: In vitro selectivity assay; assay type: biochemical; conditions: selectivity panel
T1 construct: ICE Bioscience Inc. (assay service)
Protocol: (§2) The inhibitory effects of compound MPH-5 on a panel of 68 kinases and other histone deacetylases were evaluated to assess the selectivity profile of MPH-5. This experiment was conducted by ICE Bioscience Inc. (Beijing, China).

FGFR3 = FGFR3 (Homo sapiens, UniProt P22607); test: In vitro selectivity assay; assay type: biochemical; conditions: selectivity panel
Protocol: as §2

PIM1 = PIM1 (Homo sapiens, UniProt P11309); test: In vitro selectivity assay; assay type: biochemical; conditions: selectivity panel
Protocol: as §2

EPHA8 = target: T2, EPHA8 (Homo sapiens, UniProt P29322); test: In vitro selectivity assay; assay type: biochemical; conditions: selectivity panel
T2 construct: ICE Bioscience Inc. (assay service)
Protocol: as §2

HDAC2 = target: T3, HDAC2 (Homo sapiens, UniProt Q92769); test: In vitro selectivity assay; assay type: biochemical; conditions: selectivity panel
T3 construct: ICE Bioscience Inc. (contract assay provider)
Protocol: as §2

RAF1 = RAF1 (Homo sapiens, UniProt P04049); test: In vitro selectivity assay; assay type: biochemical; conditions: selectivity panel
Protocol: as §2

CDK2 = target: T4, CDK2 (Homo sapiens, UniProt P24941); test: In vitro selectivity assay; assay type: biochemical; conditions: selectivity panel
T4 construct: ICE Bioscience Inc. (assay service)
Protocol: as §2

PTK2B = target: T5, PTK2B (Homo sapiens, UniProt Q14289); test: In vitro selectivity assay; assay type: biochemical; conditions: selectivity panel
T5 construct: ICE Bioscience Inc. (contract assay provider)
Protocol: as §2

EPHB4 = EPHB4 (Homo sapiens, UniProt P54760); test: In vitro selectivity assay; assay type: biochemical; conditions: selectivity panel
Protocol: as §2

SRC = target: T6, SRC (Homo sapiens, UniProt P12931); test: In vitro selectivity assay; assay type: biochemical; conditions: selectivity panel
T6 construct: ICE Bioscience Inc. (contract assay provider)
Protocol: as §2

TYRO3 = TYRO3 (Homo sapiens, UniProt Q06418); test: In vitro selectivity assay; assay type: biochemical; conditions: selectivity panel
Protocol: as §2

IGF1R = IGF1R (Homo sapiens, UniProt P08069); test: In vitro selectivity assay; assay type: biochemical; conditions: selectivity panel
Protocol: as §2

ABL1 = target: T7, ABL1 (Homo sapiens, UniProt P00519); test: In vitro selectivity assay; assay type: biochemical; conditions: selectivity panel
T7 construct: ICE Bioscience Inc. (assay service)
Protocol: as §2

FGFR2 = FGFR2 (Homo sapiens, UniProt P21802); test: In vitro selectivity assay; assay type: biochemical; conditions: selectivity panel
Protocol: as §2

ZAP70 = ZAP70 (Homo sapiens, UniProt P43403); test: In vitro selectivity assay; assay type: biochemical; conditions: selectivity panel
Protocol: as §2

HDAC7 = target: T8, HDAC7 (Homo sapiens, UniProt Q8WUI4); test: In vitro selectivity assay; assay type: biochemical; conditions: selectivity panel
T8 construct: ICE Bioscience Inc. (Beijing, China), the contract lab that ran the assay
Protocol: as §2

HDAC5 = target: T9, HDAC5 (Homo sapiens, UniProt Q9UQL6); test: In vitro selectivity assay; assay type: biochemical; conditions: selectivity panel
T9 construct: ICE Bioscience Inc. (contract assay provider)
Protocol: as §2

MUSK = target: T10, MUSK (Homo sapiens, UniProt O15146); test: In vitro selectivity assay; assay type: biochemical; conditions: selectivity panel
T10 construct: ICE Bioscience Inc. (contract assay provider)
Protocol: as §2

EPHA7 = target: T11, EPHA7 (Homo sapiens, UniProt Q15375); test: In vitro selectivity assay; assay type: biochemical; conditions: selectivity panel
T11 construct: ICE Bioscience Inc. (assay service)
Protocol: as §2

HDAC4 = target: T12, HDAC4 (Homo sapiens, UniProt P56524); test: In vitro selectivity assay; assay type: biochemical; conditions: selectivity panel
T12 construct: ICE Bioscience Inc. (contract assay provider)
Protocol: as §2

MST1R = target: T13, MST1R (Homo sapiens, UniProt Q04912); test: In vitro selectivity assay; assay type: biochemical; conditions: selectivity panel
T13 construct: ICE Bioscience Inc. (contract assay provider)
Protocol: as §2

CSF1R = target: T14, CSF1R (Homo sapiens, UniProt P07333); test: In vitro selectivity assay; assay type: biochemical; conditions: selectivity panel
T14 construct: ICE Bioscience Inc. (assay service)
Protocol: as §2

INSRR = INSRR (Homo sapiens, UniProt P14616); test: In vitro selectivity assay; assay type: biochemical; conditions: selectivity panel
Protocol: as §2

NTRK1 = target: T15, NTRK1 (Homo sapiens, UniProt P04629); test: In vitro selectivity assay; assay type: biochemical; conditions: selectivity panel
T15 construct: ICE Bioscience Inc. (contract assay provider)
Protocol: as §2

MET = target: T16, MET (Homo sapiens, UniProt P08581); test: In vitro selectivity assay; assay type: biochemical; conditions: selectivity panel
T16 construct: ICE Bioscience Inc. (contract assay provider)
Protocol: as §2

EPHA1 = target: T17, EPHA1 (Homo sapiens, UniProt P21709); test: In vitro selectivity assay; assay type: biochemical; conditions: selectivity panel
T17 construct: ICE Bioscience Inc. (assay service)
Protocol: as §2

YES1 = YES1 (Homo sapiens, UniProt P07947); test: In vitro selectivity assay; assay type: biochemical; conditions: selectivity panel
Protocol: as §2

ABL2 = target: T18, ABL2 (Homo sapiens, UniProt P42684); test: In vitro selectivity assay; assay type: biochemical; conditions: selectivity panel
T18 construct: ICE Bioscience Inc. (assay service)
Protocol: as §2

HEK293 = test: MTT cytotoxicity assay, HEK293 normal cells; assay type: cell-based; conditions: Homo sapiens, 72 h cell treatment
Protocol: as §1

BEL7402 = test: MTT cytotoxicity assay, BEL7402; assay type: cell-based; conditions: Homo sapiens, Bel-7402, 72 h cell treatment
Protocol: as §1

HDAC8 = target: T19, HDAC8 (Homo sapiens, UniProt Q9BY41); test: In vitro HDAC8 inhibitory assay; assay type: biochemical
T19 construct: purchased Abcam
T19 sequence (Q9BY41 1-377): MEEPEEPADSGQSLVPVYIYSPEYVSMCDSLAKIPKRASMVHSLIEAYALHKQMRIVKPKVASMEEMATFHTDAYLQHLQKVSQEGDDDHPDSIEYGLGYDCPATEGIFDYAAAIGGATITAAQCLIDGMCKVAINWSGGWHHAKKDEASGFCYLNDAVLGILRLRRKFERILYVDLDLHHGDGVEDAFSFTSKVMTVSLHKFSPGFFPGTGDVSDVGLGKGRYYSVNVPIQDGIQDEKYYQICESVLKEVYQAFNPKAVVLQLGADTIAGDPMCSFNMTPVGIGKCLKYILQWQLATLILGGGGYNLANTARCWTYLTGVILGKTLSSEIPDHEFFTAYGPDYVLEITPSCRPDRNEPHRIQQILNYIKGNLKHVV
Protocol: Inhibition of HDAC8 was determined in 96-well plates. […] The assessment of fluorescence intensity was executed at 390 nm and 460 nm via a microplate reader.

MCF10A = test: MTT cytotoxicity assay, MCF10A normal cells; assay type: cell-based; conditions: Homo sapiens, MCF-10A, 72 h cell treatment
Protocol: as §1

Sequence of ZAP70 (P43403 whole entry): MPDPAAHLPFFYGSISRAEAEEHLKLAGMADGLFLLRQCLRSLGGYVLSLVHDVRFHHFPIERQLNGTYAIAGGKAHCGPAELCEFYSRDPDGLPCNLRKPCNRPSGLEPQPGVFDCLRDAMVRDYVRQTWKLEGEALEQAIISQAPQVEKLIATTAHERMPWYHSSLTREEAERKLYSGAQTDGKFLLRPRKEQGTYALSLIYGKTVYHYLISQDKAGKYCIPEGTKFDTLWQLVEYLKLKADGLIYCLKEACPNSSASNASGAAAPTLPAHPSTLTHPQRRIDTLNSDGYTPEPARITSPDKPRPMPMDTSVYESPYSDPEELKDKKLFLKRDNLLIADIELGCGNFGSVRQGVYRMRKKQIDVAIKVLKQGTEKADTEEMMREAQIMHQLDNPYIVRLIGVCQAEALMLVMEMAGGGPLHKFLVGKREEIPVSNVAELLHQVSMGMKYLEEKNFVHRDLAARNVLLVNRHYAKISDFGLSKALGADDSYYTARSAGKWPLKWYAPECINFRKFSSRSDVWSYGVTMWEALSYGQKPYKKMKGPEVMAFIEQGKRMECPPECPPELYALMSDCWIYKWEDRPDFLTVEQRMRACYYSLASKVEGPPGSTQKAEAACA
T8 sequence (Q8WUI4 whole entry): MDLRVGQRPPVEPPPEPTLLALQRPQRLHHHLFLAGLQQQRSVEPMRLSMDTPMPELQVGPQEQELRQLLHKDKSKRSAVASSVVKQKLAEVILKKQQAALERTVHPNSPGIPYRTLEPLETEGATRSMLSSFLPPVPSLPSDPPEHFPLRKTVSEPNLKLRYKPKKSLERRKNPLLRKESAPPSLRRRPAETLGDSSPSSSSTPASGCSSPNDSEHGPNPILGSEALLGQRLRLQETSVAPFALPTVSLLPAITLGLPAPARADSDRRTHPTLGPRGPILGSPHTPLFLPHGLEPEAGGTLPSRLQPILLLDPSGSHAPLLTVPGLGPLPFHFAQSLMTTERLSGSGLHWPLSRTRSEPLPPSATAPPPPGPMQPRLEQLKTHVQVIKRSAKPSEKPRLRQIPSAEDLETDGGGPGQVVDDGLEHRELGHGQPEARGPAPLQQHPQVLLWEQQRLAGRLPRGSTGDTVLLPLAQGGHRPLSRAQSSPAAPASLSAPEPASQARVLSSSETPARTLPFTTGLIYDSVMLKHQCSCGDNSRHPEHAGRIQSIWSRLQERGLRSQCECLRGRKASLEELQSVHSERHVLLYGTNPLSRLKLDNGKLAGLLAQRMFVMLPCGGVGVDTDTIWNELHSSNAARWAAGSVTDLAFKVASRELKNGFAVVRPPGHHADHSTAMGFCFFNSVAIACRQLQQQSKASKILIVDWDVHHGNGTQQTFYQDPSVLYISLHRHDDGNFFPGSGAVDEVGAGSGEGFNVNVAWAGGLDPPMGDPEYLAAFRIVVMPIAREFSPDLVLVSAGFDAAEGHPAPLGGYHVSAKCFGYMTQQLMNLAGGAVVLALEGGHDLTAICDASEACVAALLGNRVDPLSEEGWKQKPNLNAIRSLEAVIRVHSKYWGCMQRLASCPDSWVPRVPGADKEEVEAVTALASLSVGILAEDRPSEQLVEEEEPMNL
Sequence of FGFR3 (P22607 23-806): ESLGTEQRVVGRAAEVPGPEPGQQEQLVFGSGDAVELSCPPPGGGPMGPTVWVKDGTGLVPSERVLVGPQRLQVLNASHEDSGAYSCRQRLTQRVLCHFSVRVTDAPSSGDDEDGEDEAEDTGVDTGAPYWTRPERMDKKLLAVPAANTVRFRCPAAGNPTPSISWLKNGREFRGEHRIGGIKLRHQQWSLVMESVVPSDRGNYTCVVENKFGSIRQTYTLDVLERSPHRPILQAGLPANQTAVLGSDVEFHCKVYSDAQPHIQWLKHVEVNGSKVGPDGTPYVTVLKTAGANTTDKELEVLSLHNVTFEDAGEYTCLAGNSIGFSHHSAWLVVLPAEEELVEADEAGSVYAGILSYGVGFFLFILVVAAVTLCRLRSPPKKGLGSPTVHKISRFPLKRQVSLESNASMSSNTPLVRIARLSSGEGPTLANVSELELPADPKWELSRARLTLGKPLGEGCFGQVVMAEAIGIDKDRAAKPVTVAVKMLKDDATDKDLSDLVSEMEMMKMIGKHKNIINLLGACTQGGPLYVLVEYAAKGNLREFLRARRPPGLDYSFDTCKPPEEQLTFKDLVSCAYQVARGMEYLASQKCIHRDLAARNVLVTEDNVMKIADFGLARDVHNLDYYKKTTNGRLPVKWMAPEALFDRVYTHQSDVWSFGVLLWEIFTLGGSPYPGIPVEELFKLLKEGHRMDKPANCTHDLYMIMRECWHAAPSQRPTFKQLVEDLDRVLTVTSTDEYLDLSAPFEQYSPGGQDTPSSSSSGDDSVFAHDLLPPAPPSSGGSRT
T13 sequence (Q04912 25-1400): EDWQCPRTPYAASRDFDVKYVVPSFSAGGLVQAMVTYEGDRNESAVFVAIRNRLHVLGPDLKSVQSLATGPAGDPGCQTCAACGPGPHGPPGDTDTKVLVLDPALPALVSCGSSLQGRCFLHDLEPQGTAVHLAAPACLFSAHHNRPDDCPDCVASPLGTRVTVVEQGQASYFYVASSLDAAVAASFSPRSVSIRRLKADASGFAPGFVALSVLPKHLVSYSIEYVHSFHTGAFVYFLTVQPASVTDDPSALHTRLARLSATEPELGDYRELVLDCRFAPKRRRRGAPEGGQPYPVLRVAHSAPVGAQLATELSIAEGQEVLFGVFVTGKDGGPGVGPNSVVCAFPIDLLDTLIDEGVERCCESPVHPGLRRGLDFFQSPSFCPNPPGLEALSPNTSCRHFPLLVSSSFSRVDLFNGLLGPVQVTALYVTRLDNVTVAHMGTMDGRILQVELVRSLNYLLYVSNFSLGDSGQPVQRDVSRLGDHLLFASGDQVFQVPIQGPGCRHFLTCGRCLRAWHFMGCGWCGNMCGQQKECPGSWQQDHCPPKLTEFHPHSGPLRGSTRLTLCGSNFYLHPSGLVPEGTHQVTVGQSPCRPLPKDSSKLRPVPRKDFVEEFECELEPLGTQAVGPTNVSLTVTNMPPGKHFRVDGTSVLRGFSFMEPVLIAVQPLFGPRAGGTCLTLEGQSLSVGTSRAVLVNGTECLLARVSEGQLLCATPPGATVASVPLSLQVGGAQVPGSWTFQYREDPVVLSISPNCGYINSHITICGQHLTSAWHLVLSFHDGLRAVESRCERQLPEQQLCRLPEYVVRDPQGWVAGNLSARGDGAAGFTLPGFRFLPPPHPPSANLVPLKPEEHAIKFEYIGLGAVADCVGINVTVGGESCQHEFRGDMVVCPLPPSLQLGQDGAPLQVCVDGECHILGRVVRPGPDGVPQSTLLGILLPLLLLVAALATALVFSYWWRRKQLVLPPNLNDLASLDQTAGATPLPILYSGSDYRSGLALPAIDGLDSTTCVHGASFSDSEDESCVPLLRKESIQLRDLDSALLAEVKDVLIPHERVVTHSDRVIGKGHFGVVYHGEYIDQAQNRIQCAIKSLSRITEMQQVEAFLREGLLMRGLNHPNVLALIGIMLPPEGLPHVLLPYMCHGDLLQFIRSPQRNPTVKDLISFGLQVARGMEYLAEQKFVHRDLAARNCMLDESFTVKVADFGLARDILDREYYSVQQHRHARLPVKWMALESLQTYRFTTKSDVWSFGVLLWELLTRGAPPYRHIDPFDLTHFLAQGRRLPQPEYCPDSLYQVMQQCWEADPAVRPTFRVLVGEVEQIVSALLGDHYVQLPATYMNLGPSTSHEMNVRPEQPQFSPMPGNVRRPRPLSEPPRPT
T7 sequence (P00519 whole entry): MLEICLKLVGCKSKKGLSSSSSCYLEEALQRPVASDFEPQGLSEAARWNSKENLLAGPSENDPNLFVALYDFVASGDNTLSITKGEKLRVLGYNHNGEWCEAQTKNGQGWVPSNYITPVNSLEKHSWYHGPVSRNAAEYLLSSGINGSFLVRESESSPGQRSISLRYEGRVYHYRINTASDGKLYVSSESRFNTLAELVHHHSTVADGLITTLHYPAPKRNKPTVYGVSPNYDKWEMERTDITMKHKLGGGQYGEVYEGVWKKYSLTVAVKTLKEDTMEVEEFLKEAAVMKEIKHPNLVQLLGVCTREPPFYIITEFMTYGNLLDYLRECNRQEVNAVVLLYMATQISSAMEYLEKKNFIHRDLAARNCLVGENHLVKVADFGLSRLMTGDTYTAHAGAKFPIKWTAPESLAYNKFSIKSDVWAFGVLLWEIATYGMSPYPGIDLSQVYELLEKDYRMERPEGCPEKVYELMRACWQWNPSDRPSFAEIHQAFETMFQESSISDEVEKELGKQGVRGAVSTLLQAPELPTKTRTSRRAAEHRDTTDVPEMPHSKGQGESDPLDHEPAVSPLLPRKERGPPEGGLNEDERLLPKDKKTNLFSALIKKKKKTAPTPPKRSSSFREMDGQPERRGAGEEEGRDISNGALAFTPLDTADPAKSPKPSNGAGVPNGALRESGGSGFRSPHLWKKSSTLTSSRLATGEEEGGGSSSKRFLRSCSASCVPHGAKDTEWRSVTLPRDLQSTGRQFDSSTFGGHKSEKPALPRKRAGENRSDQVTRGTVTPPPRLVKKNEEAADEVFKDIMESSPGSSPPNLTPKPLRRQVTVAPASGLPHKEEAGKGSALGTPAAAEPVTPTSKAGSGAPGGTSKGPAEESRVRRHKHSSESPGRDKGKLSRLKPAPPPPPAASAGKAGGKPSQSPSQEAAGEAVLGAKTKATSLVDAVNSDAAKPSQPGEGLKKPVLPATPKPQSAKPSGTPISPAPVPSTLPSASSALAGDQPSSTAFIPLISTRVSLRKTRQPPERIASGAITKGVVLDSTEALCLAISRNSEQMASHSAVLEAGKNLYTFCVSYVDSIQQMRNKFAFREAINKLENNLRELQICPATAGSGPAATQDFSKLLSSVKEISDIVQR

Cn1cc(-c2cc3cnc(Nc4ccc(-c5cncn5/C=C/C(=O)NO)cc4Cl)cc3n2C(=O)OC(C)(C)C)cn1 [MPH-5]
IC50 [1]: 0.27 µM
IC50 (EPHB3): > 10 µM
IC50 (FGFR3): > 10 µM
IC50 (PIM1): > 10 µM
IC50 (EPHA8): > 10 µM
IC50 (HDAC2): > 10 µM
IC50 (RAF1): > 10 µM
IC50 (CDK2): > 10 µM
IC50 (PTK2B): > 10 µM
IC50 (EPHB4): > 10 µM
IC50 (SRC): > 10 µM
IC50 (TYRO3): > 10 µM
IC50 (IGF1R): > 10 µM
IC50 (ABL1): > 10 µM
IC50 (FGFR2): > 10 µM
IC50 (ZAP70): > 10 µM
IC50 (HDAC7): > 10 µM
IC50 (HDAC5): > 10 µM
IC50 (MUSK): > 10 µM
IC50 (EPHA7): > 10 µM
IC50 (HDAC4): > 10 µM
IC50 (MST1R): > 10 µM
IC50 (CSF1R): > 10 µM
IC50 (INSRR): > 10 µM
IC50 (NTRK1): > 10 µM
IC50 (MET): > 10 µM
IC50 (EPHA1): > 10 µM
IC50 (YES1): > 10 µM
IC50 (ABL2): > 10 µM
IC50 (HEK293): > 10 µM
IC50 (BEL7402): 0.86 µM
IC50 (HDAC8; 90 min at 37°C): 6.07 ± 0.37 nM
HDAC8 IC50 of MPH-5 relative to belinostat (HDAC8; vs belinostat): about 4 fold
IC50 (MCF10A): > 10 µM

— paper PMC11439681, “The identification of potent dual-target monopolar spindle 1 (MPS1) and histone deacetylase 8 (HDAC8) inhibitors through pharmacophore modeling, molecular docking, molecular dynamics simulations, and biological evaluation” (Frontiers in Pharmacology, 2024)
